Like-named read-outs stand apart in the source and are kept apart here.
Assays:
[1] = test system: HL60/VCR (HL60/MDR), a cell line selected for resistance to vincristine; assay: WST-1 cell proliferation assay, HL60/VCR; details: for IC50: Homo sapiens, HL60/VCR, read-out: IC50 HL60/MDR; for Fold Change in IC50: HL60/MDR vs HL60
Experimental: (§1) The HL60NCR resistant cell line has been characterized with over-expression of the multidrug resistant protein (MDR; p-glycoprotein). The over-expression ratio (level of MDR in resistant cell line over level of MDR in the parental cell line) is 8 fold with a 10 fold increase in pgp function. Pgp surface expression was measured by flow cytometry with the MRK16 antibody and Pgp function with the generic substrate, Rh123.
(§2) WST-1 is a water-soluble tetrazolium salt that can be used for cell proliferation or cell viability assays. The rate of WST-1 cleavage by mitochondrial dehydrogenases correlates with the number of viable cells in the culture. WST-1 is added directly to the cells ( 1/10th of the culture volume) and absorbance at 450 nm can be measured using an ELISA plate reader following a short incubation at 37° C.

[2] = test system: HL60 (human promyelocytic leukemia) cells; assay: WST-1 cell proliferation assay, HL60; type: cell-based
Experimental: as §1, §2

[3] = test system: 8226/MR20, a cell line selected for resistance to mitoxantrone (BCRP); assay: WST-1 cell proliferation assay, 8226/MR20; details: 8226/MR20 vs 8226
Experimental: The 8226/MR20 resistant cell line has been characterized with over-expression of the multidrug resistant protein (BCRP).
BCRP surface expression was measured by flow cytometry with the BXP21 antibody.
as §2

[4] = test system: secondary AML patient sample cells; assay: Drug transport (CsA modulation of uptake) in secondary AML patient cells; type: cell-based, human; details: for increase of uptake by Cyclosporin A, mean value: 22 secondary AML samples; for CsA Modulation of Uptake: D-value; for number of patient samples with uptake increased by ≧10% by Cyclosporin A: of 22 secondary AML samples
Experimental: The expression and function of Pgp, MRP-1 and BCRP was measured in cells collected from patients with secondary AML. Pgp, MRP-1 and BCRP expression was measured by flow cytometry with the MRK16, MRPm6 and BXP21 antibodies, and function by modulation of uptake of the fluorescent substrates DiOC2(3), rhodamine-123 and pheophorbide A by PSC-833, MK571 and FTC, respectively, all measured by the Kolmogorov-Smirnov statistic, generating D-values.

[5] = test system: pretreatment secondary AML patient cells; assay: Amonafide and daunorubicin efflux in cryopreserved cells of patients treated with amonafide+cytarabine; type: cell-based, human; details: cells from 15 patients treated with amonafide+cytarabine
Experimental: Cryopreserved cells were tested for viability and samples with viabilities less than 40% were considered inevaluable and discarded.
To measure drug uptake, the substrates were incubated with cells in medium containing each drug alone, or in combination with the modulator at the desired final concentrations. Cells were then washed and resuspended in PBS, and placed on ice. Drug-associated fluorescence was measured by flow cytometry using a FacScan flow cytometer (Becton Dickinson Immunocytometry Systems, San Jose, Calif.) equipped in standard fashion with an Argon laser for 488 nm excitation and a 585/42 band-pass filter (FL2) or a 670 long-pass (FL3) filter for emission collection. Data were analyzed with WinList software (Verity Software House, Topsham, Me.).

[6] = test system: K562 cells (Pgp negative); assay: Functional efflux assay (DiOC2), K562; type: cell-based, human; details: K562, flow cytometry
Experimental: The cells were washed with PBS and resuspended in medium. An aliquot was taken for cytometric quantitation of baseline dye uptake. The remaining samples were incubated again either with or without CSA and resuspended in fresh, chilled medium in order to assess dye efflux also by flow cytometric analysis. Functional expression analyses of Pgp were performed on a BD FACSCalibur flow cytometer (Franklin Lakes, N.J.). Cellular amonafide content was measured on the Cytopeia Influx flow cytometer (Seattle, Wash.). Data analysis was performed using the Dako Cytomation Summit software, version 4.0 (Fort Collins, Colo.). […] Differential Pgp staining of anti-Pgp treated cells was compared to that of control cells counted with the same number of gated events. […] These analyses were performed using the NCSS 2007 software (Kaysville, Utah). This approach addresses the maximum difference between two empirical distribution functions.

Pgp [7] = target: T1, Pgp (Homo sapiens, UniProt P08183); details: human, MDCK-MDR1
T1 sequence (P08183 whole entry): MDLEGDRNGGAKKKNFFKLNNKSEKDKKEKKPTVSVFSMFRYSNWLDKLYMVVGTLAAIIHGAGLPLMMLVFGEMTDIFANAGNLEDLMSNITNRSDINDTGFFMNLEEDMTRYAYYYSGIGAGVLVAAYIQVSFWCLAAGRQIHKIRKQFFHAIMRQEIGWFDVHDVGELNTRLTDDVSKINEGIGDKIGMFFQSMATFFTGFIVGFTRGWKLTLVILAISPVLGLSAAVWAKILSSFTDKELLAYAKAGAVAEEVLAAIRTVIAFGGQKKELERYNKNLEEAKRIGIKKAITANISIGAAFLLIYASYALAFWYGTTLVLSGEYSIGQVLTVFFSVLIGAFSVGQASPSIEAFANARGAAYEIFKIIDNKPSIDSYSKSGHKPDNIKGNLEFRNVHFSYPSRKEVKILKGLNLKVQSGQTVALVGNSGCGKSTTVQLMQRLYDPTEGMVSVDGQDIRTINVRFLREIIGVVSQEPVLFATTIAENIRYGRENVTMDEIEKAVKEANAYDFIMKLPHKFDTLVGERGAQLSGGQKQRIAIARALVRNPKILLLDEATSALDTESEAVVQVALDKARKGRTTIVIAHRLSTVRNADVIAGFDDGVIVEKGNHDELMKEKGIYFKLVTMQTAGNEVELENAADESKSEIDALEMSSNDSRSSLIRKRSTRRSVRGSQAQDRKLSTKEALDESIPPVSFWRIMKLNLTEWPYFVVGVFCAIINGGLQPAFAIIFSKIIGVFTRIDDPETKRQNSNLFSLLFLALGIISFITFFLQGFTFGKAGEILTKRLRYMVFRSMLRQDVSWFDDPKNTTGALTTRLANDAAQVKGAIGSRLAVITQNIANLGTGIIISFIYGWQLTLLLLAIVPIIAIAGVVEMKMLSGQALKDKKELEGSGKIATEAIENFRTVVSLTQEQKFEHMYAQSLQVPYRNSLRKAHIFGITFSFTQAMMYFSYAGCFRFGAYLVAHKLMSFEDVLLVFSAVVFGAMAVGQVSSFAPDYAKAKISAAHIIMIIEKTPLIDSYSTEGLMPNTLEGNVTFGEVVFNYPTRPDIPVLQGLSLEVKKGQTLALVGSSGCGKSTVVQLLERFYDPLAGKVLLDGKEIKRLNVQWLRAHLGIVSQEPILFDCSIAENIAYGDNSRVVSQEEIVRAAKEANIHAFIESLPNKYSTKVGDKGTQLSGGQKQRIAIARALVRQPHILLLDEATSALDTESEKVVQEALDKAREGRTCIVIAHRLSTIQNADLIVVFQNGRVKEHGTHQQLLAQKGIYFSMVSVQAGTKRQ
Source text: MDR1-MDCK are Madin Darby Canine Kidney cells transfected with the human multi-drug resistance gene. Confluent monolayers made from these cells can be used to access a test compound's potential role as a P-gp substrate. The assay set up is similar to the CaCo-2 assay.
(§3) Both the Caco-2 and MDR1-MDCK cells were used for this model.

Pgp [8] = target: T1, Pgp; details: human, Caco-2
Source text: as §3

[9] = test system: IGROV1 (human ovarian) cell line; assay: SRB cell proliferation assay, IGROV1; type: cell-based; details: read-out: IC50
Experimental: (§4) The T8 resistant cell line has been characterized with over-expression of the multidrug resistant protein BCRP (breast cancer resistance protein). Topotecan, which is a known substrate for BCRP, was used as a control.
(§5) Sulforhodamine-B (SRB) assay is performed to assess cell survival. SRB is a water-soluble dye that binds to the basic amino acids of the cellular proteins. Thus, colorimetric measurement of the bound dye provides an estimate of the total protein mass that is related to the cell number. The color can then be quantified using a simple colorimetric assay. The results can be read on a multiwell scanning spectrophotometer (ELISA reader).

[10] = test system: IGROV1-T8, a cell line selected for resistance to topotecan (increased BCRP expression); details: T8 resistant line vs IGROV1
Experimental: as §4, §5

[11] = test system: IGROV1-T8, a cell line selected for resistance to topotecan (increased BCRP expression); assay: cells; details: Homo sapiens, T8
Experimental: as §4, §5

[12] = HL-60, wild-type HL60, WST-1, read-out: IC50 HL60

| Compound | IC50 [1] [nM] | increase of uptake by Cyclosporin A, mean value [4] [%] | CsA Modulation of Uptake ([4]; Pt 1) | CsA Modulation of Uptake ([4]; Pt 2) | CsA Modulation of Uptake ([4]; Pt 3) | CsA Modulation of Uptake ([4]; Pt 4) | CsA Modulation of Uptake ([4]; Pt 5) | CsA Modulation of Uptake ([4]; Pt 6) | CsA Modulation of Uptake ([4]; Pt 7) | CsA Modulation of Uptake ([4]; Pt 8) | CsA Modulation of Uptake ([4]; Pt 9) | CsA Modulation of Uptake ([4]; Pt 10) | CsA Modulation of Uptake ([4]; Pt 11) | CsA Modulation of Uptake ([4]; Pt 12) | CsA Modulation of Uptake ([4]; Pt 13) | CsA Modulation of Uptake ([4]; Pt 14) | CsA Modulation of Uptake ([4]; Pt 15) | CsA Modulation of Uptake ([4]; Pt 16) | CsA Modulation of Uptake ([4]; Pt 17) | CsA Modulation of Uptake ([4]; Pt 18) | also measured |
| --- | --- | --- | --- | --- | --- | --- | --- | --- | --- | --- | --- | --- | --- | --- | --- | --- | --- | --- | --- | --- | --- |
| COc1cccc2c1C(=O)c1c(O)c3c(c(O)c1C2=O)C[C@@](O)(C(C)=O)C[C@@H]3O[C@H]1C[C@H](N)[C@H](O)[C@H](C)O1 [Daunorubicin, daunorubicin] | 92 | 19.7 | 0.2 | 0.14 | 0.27 | 0.23 | 0 | 0.41 | 0.47 | 0.31 | 0.08 | 0.08 | 0.03 | 0.37 | 0.16 | 0.29 | 0.07 | 0.08 | 0.24 | 0.03 | loss of potency in the Pgp+ line ([1]; HL60/VCR vs HL60): 2 log units; IC50 ([2]; HL-60, read-out: IC50 HL60): 15 nM; loss of potency in the BCRP line [3]: ½; CsA Modulation of Uptake ([4]; Pt 19): 0.04; CsA Modulation of Uptake ([4]; Pt 20): 0.35; CsA Modulation of Uptake ([4]; Pt 21): 0.12; CsA Modulation of Uptake ([4]; Pt 22): 0.43; number of patient samples with uptake increased by ≧10% by Cyclosporin A [4]: 16 patient samples; drug efflux in relation to clinical response (CR vs non-CR) [5]: negatively correlated with response |
| CCN1/C(=C/C=C/c2oc3ccccc3[n+]2CC)Oc2ccccc21.[I-] [DiOC2] |  |  |  |  |  |  |  |  |  |  |  |  |  |  |  |  |  |  |  |  | DiOC2 accumulation [6]: accumulated in Pgp negative K562 cells |
| C[C@H]1O[C@@H](O[C@H]2[C@@H](O)C[C@H](O[C@H]3[C@@H](O)C[C@H](O[C@H]4CC[C@@]5(C)[C@H](CC[C@@H]6[C@@H]5C[C@@H](O)[C@]5(C)[C@@H](C7=CC(=O)OC7)CC[C@]65O)C4)O[C@@H]3C)O[C@@H]2C)C[C@H](O)[C@@H]1O [Digoxin, digoxin] |  |  |  |  |  |  |  |  |  |  |  |  |  |  |  |  |  |  |  |  | Digoxin Efflux (efflux/influx ratio), MDR1-MDCK (Pgp [7]): 70 + 11; Digoxin Efflux (efflux/influx ratio), Caco-2 (Pgp [8]): 10.6 ± 1.4 |
| COc1cccc2c1C(=O)c1c(O)c3c(c(O)c1C2=O)C[C@@](O)(C(=O)CO)C[C@@H]3O[C@H]1C[C@H](N)[C@H](O)[C@H](C)O1 [Doxorubicin, doxorubicin] | 161 |  |  |  |  |  |  |  |  |  |  |  |  |  |  |  |  |  |  |  | Fold Change in IC50 [1]: 4.87; IC50 [2, 12]: 33 nM |
| CC(=O)[C@]1(O)Cc2c(O)c3c(c(O)c2[C@@H](O[C@H]2C[C@H](N)[C@H](O)[C@H](C)O2)C1)C(=O)c1ccccc1C3=O [Idarubicin, idarubicin] |  | 7 | 0 | 0.23 | 0.22 | 0.17 | 0 | 0.21 | 0.21 | 0.16 | 0.18 | 0.02 | 0.05 | 0.08 | 0.06 | 0.28 | 0.16 | 0.03 | 0 | 0 | CsA Modulation of Uptake ([4]; Pt 19): 0.17; CsA Modulation of Uptake ([4]; Pt 20): 0.23; CsA Modulation of Uptake ([4]; Pt 21): 0.19; CsA Modulation of Uptake ([4]; Pt 22): 0.31; number of patient samples with uptake increased by ≧10% by Cyclosporin A [4]: 12 patient samples |
| O=C1c2c(O)ccc(O)c2C(=O)c2c(NCCNCCO)ccc(NCCNCCO)c21 [Mitoxantrone, mitoxantrone] | 3110 |  |  |  |  |  |  |  |  |  |  |  |  |  |  |  |  |  |  |  | Fold Change in IC50 [1]: 390.7; IC50 [2, 12]: 8 nM |
| CO[C@@H]1[C@H](N(C)C(=O)c2ccccc2)C[C@H]2O[C@]1(C)n1c3ccccc3c3c4c(c5c6ccccc6n2c5c31)C(=O)NC4 [PKC412] |  |  |  |  |  |  |  |  |  |  |  |  |  |  |  |  |  |  |  |  | Digoxin Efflux (efflux/influx ratio), MDR1-MDCK (Pgp [7]): 6.4 ± 0.8; Digoxin Efflux (efflux/influx ratio), Caco-2 (Pgp [8]): 1.8 ± 1.3 |
| CC[C@@]1(O)C(=O)OCc2c1cc1n(c2=O)Cc2cc3c(CN(C)C)c(O)ccc3nc2-1 [TPT, Topotecan] |  |  |  |  |  |  |  |  |  |  |  |  |  |  |  |  |  |  |  |  | IC50 ([9]; IGROV-1, IGROV1, experiment (1)): 36 nM; IC50 ([9]; IGROV-1, IGROV1, experiment (2)): 73.9 nM; resistance of T8 line to Topotecan relative to Amonafide [10]: 10 fold; IC50 ([11]; experiment (1)): 1100 nM; IC50 ([11]; experiment (2)): 1090 nM |
| amonafide L-malate |  | −2.5 | 0 | 0.09 | 0 | 0.02 | 0 | 0.1 | 0.31 | 0.07 | 0 | 0.18 | 0 | 0 | 0.03 | 0.05 | 0 | 0 | 0 | 0 | CsA Modulation of Uptake ([4]; Pt 19): 0; CsA Modulation of Uptake ([4]; Pt 20): 0.15; CsA Modulation of Uptake ([4]; Pt 21): 0.43; CsA Modulation of Uptake ([4]; Pt 22): 0; substrate status for the MDR proteins expressed in AML cells ([4]; in relation to other topoisomerase 2 inhibitors): poor substrate; number of patient samples with uptake increased by ≧10% by Cyclosporin A [4]: 5 patient samples |
